Laboratory results as given in patent publication US20240308973A1, “PHOSPHODIESTERASE 3 (PDE3) INHIBITORS” (Zoetis Services LLC, priority 2023, published 2024).

Target: dog PDE3A recombinant enzyme (Canis lupus familiaris, UniProt A0A8I3NYE0)
Assay: cPDE3A assay (fluorescent polarization)
Format: biochemical
Conditions: canine PDE3A, read-out: cPDE3 Inhibition (IC50)
Protocol: cPDE3A Assay (Fluorescent Polarization)
The canine PDE3A assay kit was purchased from BPS Bioscience (San Diego, CA) which included dog PDE3A recombinant enzyme, FAM-cyclic-3′,5′-AMP (20 μM), PDE3 assay buffer, binding agent, binding agent diluent and microtiter 96-well plates. Compounds were initially dissolved in DMSO. The stock concentration was subsequently diluted in cPDE assay buffer (10× stock) and serially diluted to give a concentration response curve starting at 10 μM (≥7 total concentrations). Following the serial dilution, compound solution (0.1% final DMSO) was transferred to an assay plate (96-well) where the remaining canine PDE3A assay reagents were dispensed according to the BPS Bioscience® protocol (catalog #79735) procedure using a final concentration of 5 pg/μL of enzyme. Each compound was evaluated for the inhibition of the canine PDE3A enzyme activity using the measurement of fluorescent polarization changes. The 50% inhibition concentration (IC50) nM was calculated and reported.

dog PDE3A recombinant enzyme, sequence (A0A8I3NYE0 1-1135): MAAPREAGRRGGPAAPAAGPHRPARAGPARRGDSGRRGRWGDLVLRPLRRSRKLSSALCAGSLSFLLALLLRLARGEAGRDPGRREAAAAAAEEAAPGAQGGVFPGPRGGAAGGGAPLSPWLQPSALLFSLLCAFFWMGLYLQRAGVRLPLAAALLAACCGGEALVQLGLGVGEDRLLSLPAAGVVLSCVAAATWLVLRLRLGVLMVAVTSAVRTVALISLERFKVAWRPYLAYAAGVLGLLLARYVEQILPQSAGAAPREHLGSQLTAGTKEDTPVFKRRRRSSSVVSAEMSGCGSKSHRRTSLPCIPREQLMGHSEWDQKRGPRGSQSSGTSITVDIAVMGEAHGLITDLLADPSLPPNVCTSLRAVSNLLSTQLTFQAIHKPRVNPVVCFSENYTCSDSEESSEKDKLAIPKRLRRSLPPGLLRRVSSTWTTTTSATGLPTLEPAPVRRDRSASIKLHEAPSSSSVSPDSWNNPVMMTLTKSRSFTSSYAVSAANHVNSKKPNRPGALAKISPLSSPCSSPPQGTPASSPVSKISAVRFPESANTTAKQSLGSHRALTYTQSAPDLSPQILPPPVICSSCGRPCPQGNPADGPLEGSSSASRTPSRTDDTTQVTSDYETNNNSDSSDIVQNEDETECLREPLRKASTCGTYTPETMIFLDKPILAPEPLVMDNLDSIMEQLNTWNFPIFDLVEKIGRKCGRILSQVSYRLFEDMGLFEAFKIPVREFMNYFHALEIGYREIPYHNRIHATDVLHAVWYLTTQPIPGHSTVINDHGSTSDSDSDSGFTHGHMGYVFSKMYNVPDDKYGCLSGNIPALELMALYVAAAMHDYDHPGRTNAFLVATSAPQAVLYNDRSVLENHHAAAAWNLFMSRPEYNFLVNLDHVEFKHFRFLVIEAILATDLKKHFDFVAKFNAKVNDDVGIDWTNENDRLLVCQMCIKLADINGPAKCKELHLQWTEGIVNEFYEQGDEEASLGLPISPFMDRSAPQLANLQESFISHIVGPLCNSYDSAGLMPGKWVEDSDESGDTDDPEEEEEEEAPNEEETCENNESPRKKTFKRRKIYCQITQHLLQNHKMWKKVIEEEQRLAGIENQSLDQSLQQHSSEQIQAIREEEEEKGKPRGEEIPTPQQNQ

Compound | IC50 [nM]
COc1cc(-c2cc(C3=NNC(=O)CC3C)cc3c2NC(=O)CC3)ccn1 (centres unmarked) [Example #1, 8-(2-methoxypyridin-4-yl)-6-(4-methyl-6-oxo-1,4,5,6-tetrahydropyridazin-3-yl)-3,4-dihydroquinolin-2 (1H)-one] | 29.2
CC1CC(=O)NN=C1c1cc2c(c(-c3nccs3)c1)NC(=O)CC2 (centres unmarked) [Example #2, 6-(4-methyl-6-oxo-1,4,5,6-tetrahydropyridazin-3-yl)-8-(thiazol-2-yl)-3,4-dihydroquinolin-2 (1H)-one] | 23.5
CC1CC(=O)NN=C1c1cc(Br)c2c(c1)CCC(=O)N2 (centres unmarked) [Example #3, 8-bromo-6-(4-methyl-6-oxo-1,4,5,6-tetrahydropyridazin-3-yl)-3,4-dihydroquinolin-2 (1H)-one] | 3.2
COc1ncc(-c2cc(C3=NNC(=O)CC3C)cc3c2NC(=O)CC3)s1 (centres unmarked) [Example #4, 8-(2-methoxythiazol-5-yl)-6-(4-methyl-6-oxo-1,4,5,6-tetrahydropyridazin-3-yl)-3,4-dihydroquinolin-2 (1H)-one] | 24.8
CC1CC(=O)NN=C1c1ccc2nc(Nc3ccc(S(C)(=O)=O)cc3)n(C)c2c1 (centres unmarked) [Example #5, 5-methyl-6-(1-methyl-2-((4-(methylsulfonyl)phenyl)amino)-1H-benzo[d]imidazol-6-yl)-4,5-dihydropyridazin-3 (2H)-one] | 4.9
O=C1Cc2cc(-c3ccc(=O)[nH]n3)cc(-c3ccc(Cl)cc3)c2N1 [Example #7, 7-(4-chlorophenyl)-5-(6-oxo-1,6-dihydropyridazin-3-yl)indolin-2-one] | 40.6
CC1CC(=O)NN=C1c1cc(Cl)c2c(c1)C1(CC1)C(=O)N2 (centres unmarked) [Example #8, 7′-chloro-5′-(4-methyl-6-oxo-1,4,5,6-tetrahydropyridazin-3-yl)spiro[cyclopropane-1,3′-indolin]-2′-one] | 3.9
O=C1CCc2cc(-c3ccc(=O)[nH]n3)cc(-c3ccc(Cl)cc3)c2N1 [Example #9, 8-(4-chlorophenyl)-6-(6-oxo-1,6-dihydropyridazin-3-yl)-3,4-dihydroquinolin-2 (1H)-one] | 13.6
CC1CC(=O)NN=C1c1cc2c(c(-c3cccnc3)c1)NC(=O)CC2 (centres unmarked) [Example #13, 6-(4-methyl-6-oxo-1,4,5,6-tetrahydropyridazin-3-yl)-8-(pyridin-3-yl)-3,4-dihydroquinolin-2 (1H)-one] | 44.4
Cc1cc(=O)[nH]nc1-c1cc(-c2cscn2)c2c(c1)C(C)(C)C(=O)N2 [Example #17, 3,3-dimethyl-5-(4-methyl-6-oxo-1,6-dihydropyridazin-3-yl)-7-(thiazol-4-yl)indolin-2-one] | 62.4
COc1ccc(-c2cc(C3=NNC(=O)CC3C)cc3c2NC(=O)CCC3)cn1 (centres unmarked) [Example #18, 9-(6-methoxypyridin-3-yl)-7-(4-methyl-6-oxo-1,4,5,6-tetrahydropyridazin-3-yl)-1,3,4,5-tetrahydro-2H-benzo[b]azepin-2-one] | 42.1
CC1(C)C(=O)Nc2c(F)cc(-c3ccc(=O)[nH]n3)cc21 [Example #27, 7-fluoro-3,3-dimethyl-5-(6-oxo-1,6-dihydropyridazin-3-yl)indolin-2-one] | 38.3
CC1CC(=O)NN=C1c1cc(Cl)c2nc(N)sc2c1 (centres unmarked) [Example #30, 6-(2-amino-4-chlorobenzo[d]thiazol-6-yl)-5-methyl-4,5-dihydropyridazin-3 (2H)-one] | 4
CC1CC(=O)NN=C1c1cc(F)c2nc(N)sc2c1 (centres unmarked) [Example #31, 6-(2-amino-4-fluorobenzo[d]thiazol-6-yl)-5-methyl-4,5-dihydropyridazin-3 (2H)-one] | 5.5
CC1(C)C(=O)Nc2c(Br)cc(-c3ccc(=O)[nH]n3)cc21 [Example #32, 7-bromo-3,3-dimethyl-5-(6-oxo-1,6-dihydropyridazin-3-yl)indolin-2-one] | 26.7
C[C@@H]1CC(=O)NN=C1c1cc(Cl)c2c(c1)C(C)(C)C(=O)N2 [Example #33, (R)-7-chloro-3,3-dimethyl-5-(4-methyl-6-oxo-1,4,5,6-tetrahydropyridazin-3-yl)indolin-2-one] | 3.2
CNc1nc2c(F)cc(C3=NNC(=O)CC3C)cc2s1 (centres unmarked) [Example #34, 6-(4-fluoro-2-(methylamino)benzo[d]thiazol-6-yl)-5-methyl-4,5-dihydropyridazin-3 (2H)-one] | 3.7
CC1CC(=O)NN=C1c1cc(Cl)c2[nH]c(=O)ccc2c1 (centres unmarked) [Example #35, 8-chloro-6-(4-methyl-6-oxo-1,4,5,6-tetrahydropyridazin-3-yl)quinolin-2 (1H)-one] | 3.2
CC1CC(=O)NN=C1c1cc2c(c(Cl)c1F)NC(=O)C2(C)C (centres unmarked) [Example #36, 7-chloro-6-fluoro-3,3-dimethyl-5-(4-methyl-6-oxo-1,4,5,6-tetrahydropyridazin-3-yl)indolin-2-one] | 3.6

Compound | IC50 [nM]
CC1CC(=O)NN=C1c1cc(F)c2nc(N3CC(O)C3)sc2c1 (centres unmarked) [Example #37, 6-(4-fluoro-2-(3-hydroxyazetidin-1-yl)benzo[d]thiazol-6-yl)-5-methyl-4,5-dihydropyridazin-3 (2H)-one] | 6.1
CC1CC(=O)NN=C1c1cc(C#N)c2nc(N)sc2c1 (centres unmarked) [Example #38, 2-amino-6-(4-methyl-6-oxo-1,4,5,6-tetrahydropyridazin-3-yl)benzo[d]thiazole-4-carbonitrile] | 7.4
CC1CC(=O)NN=C1c1cc(Cl)c2c(c1)CNC2=O (centres unmarked) [Example #39, 7-chloro-5-(4-methyl-6-oxo-1,4,5,6-tetrahydropyridazin-3-yl)isoindolin-1-one] | 10.5
CC1CC(=O)NN=C1c1cc(C#N)c2[nH]c(=O)ccc2c1 (centres unmarked) [Example #40, 6-(4-methyl-6-oxo-1,4,5,6-tetrahydropyridazin-3-yl)-2-oxo-1,2-dihydroquinoline-8-carbonitrile] | 12
CC1CC(=O)NN=C1c1cc(Cl)c2c(c1)C(C)(C)NC2=O (centres unmarked) [Example #41, 7-chloro-3,3-dimethyl-5-(4-methyl-6-oxo-1,4,5,6-tetrahydropyridazin-3-yl)isoindolin-1-one] | 15.4
CC1CC(=O)NN=C1c1cc(Cl)c2[nH]c(=O)n(C)c2c1 (centres unmarked) [Example #42, 4-chloro-1-methyl-6-(4-methyl-6-oxo-1,4,5,6-tetrahydropyridazin-3-yl)-1,3-dihydro-2H-benzo[d]imidazol-2-one] | 16.2
CC1CC(=O)NN=C1c1cc(F)c2c(c1)C1(CCC1)C(=O)N2 (centres unmarked) [Example #43, 7′-fluoro-5′-(4-methyl-6-oxo-1,4,5,6-tetrahydropyridazin-3-yl)spiro[cyclobutane-1,3′-indolin]-2′-one] | 35.5
CC1(C)C(=O)Nc2c(Cl)cc(C3=NNC(=O)CC3)cc21 [Example #44, 7-chloro-3,3-dimethyl-5-(6-oxo-1,4,5,6-tetrahydropyridazin-3-yl)indolin-2-one] | 94
CC1CC(=O)NN=C1c1cc(F)c2nc(NCc3cnn(C)c3)sc2c1 (centres unmarked) [Example #46, 6-(4-fluoro-2-(((1-methyl-1H-pyrazol-4-yl)methyl)amino)benzo[d]thiazol-6-yl)-5-methyl-4,5-dihydropyridazin-3 (2H)-one] | 3.4
Cc1n[nH]c2c(Cl)cc(C3=NNC(=O)CC3C)cc12 (centres unmarked) [Example #47, 6-(7-chloro-3-methyl-1H-indazol-5-yl)-5-methyl-4,5-dihydropyridazin-3 (2H)-one] | 4
CC1CC(=O)NN=C1c1cc(F)c2c(c1)CC(=O)N2 (centres unmarked) [Example #50, 7-fluoro-5-(4-methyl-6-oxo-1,4,5,6-tetrahydropyridazin-3-yl)indolin-2-one] | 4.9
C[C@H]1CC(=O)NN=C1c1cc(Cl)c2c(c1)C(C)(C)NC2=O [Example #51, (S)-7-chloro-3,3-dimethyl-5-(4-methyl-6-oxo-1,4,5,6-tetrahydropyridazin-3-yl)isoindolin-2-one] | 336
CC1SC(=O)NN=C1c1cc2c(c(-c3ccc(S(C)(=O)=O)cc3)c1)NC(=O)C2 (centres unmarked) [Example #63, 6-methyl-5-(7-(4-(methylsulfonyl)phenyl)-2-oxoindolin-5-yl)-3,6-dihydro-2H-1,3,4-thiadiazin-2-one] | 30.5
CC1SC(=O)NN=C1c1cc(Br)c2c(c1)CCC(=O)N2 (centres unmarked) [Example #65, 5-(8-bromo-2-oxo-1,2,3,4-tetrahydroquinolin-6-yl)-6-methyl-3,6-dihydro-2H-1,3,4-thiadiazin-2-one] | 4.3
C[C@H]1SC(=O)NN=C1c1cc(Cl)c2c(c1)C(C)(C)CC(=O)N2 [Example #67, (6R)-5-(8-chloro-4,4-dimethyl-2-oxo-1,2,3,4-tetrahydroquinolin-6-yl)-6-methyl-3,6-dihydro-2H-1,3,4-thiadiazin-2-one] | 48.3
CC1SC(=O)NN=C1c1cc(C#N)c2c(c1)CC(=O)N2 (centres unmarked) [Example #77, 5-(6-methyl-2-oxo-3,6-dihydro-2H-1,3,4-thiadiazin-5-yl)-2-oxoindoline-7-carbonitrile] | 41.6
C[C@@H]1SC(=O)NN=C1c1cc(F)c2c(c1)CC(=O)N2 [Example #78, (S)-5-(7-fluoro-2-oxoindolin-5-yl)-6-methyl-3,6-dihydro-2H-1,3,4-thiadiazin-2-one] | 7.8
CC1SC(=O)NN=C1c1cc(Cl)c2c(c1)CNC2=O (centres unmarked) [Example #79, 5-(7-chloro-1-oxoisoindolin-5-yl)-6-methyl-3,6-dihydro-2H-1,3,4-thiadiazin-2-one] | 20.3
CC1SC(=O)NN=C1c1cc(Cl)c2c(c1)C(C)(C)NC2=O (centres unmarked) [Example #80, 5-(7-chloro-3,3-dimethyl-1-oxoisoindolin-5-yl)-6-methyl-3,6-dihydro-2H-1,3,4-thiadiazin-2-one] | 20.6
